The test system of data set [1] is multiple myeloma cells U266. As to the kind of experiment: MTT test, cell viability of U266 cells. The data set is classed as cell-based, human. The protocol:
(§1) The MTT test is a standard assay addressing cell toxicity of a compound. It is based on the principle that after 3-4 hours of cell incubation with MTT (3-(4,5-dimethylthiazole-2-yl)-2,5-diphenyl tetrazolium bromide) so-called purple formazan crystals develop in living and early apoptotic cells. Dead cells don't produce formazan crystals.
(§2) Different cell lines were tested. Unless indicated differently, A549 human lung epithelial cells (derived from lung carcinoma) and L929sA murine fibroblast cells were cultured in DMEM with 10% FCS, 100 U/ml penicillin and 100 μg/ml streptomycin. Unless indicated differently, the human multiple myeloma cell lines L363, U266 and MM1.S were cultured in RPMI 1640 with Glutamax-I, supplemented with 10% FCS, 100 U/ml penicillin and 100 μg/ml streptomycin. Cells were seeded at 5000 cells/well (for adherent A549 and L929sA cells) or at 10000 cells/well (for the multiple myeloma lines in suspension) in 96 well plates. Cells were incubated in the presence of the respective synephrine compounds or vehicle (EtOH; for control test) in a final volume of 0.2 ml for 24 or 48 hours at 37° C. Subsequently, 20 μl of MTT solution (5 mg/ml in phosphate-buffered saline) was added to each well. After 4 hours incubation at 37° C., 80 μl of the extraction buffer (10% SDS, 0.01 M HCl) was added. After overnight incubation at room temperature, the optical densities at 590 nm were measured. Results are illustrated in FIGS. 2 to 6 and are expressed as percentage of viable cells as compared to vehicle-treated controls.
The MTT test was further extended to include alternative synephrine derivatives and a range of multiple myeloma cell lines for which the results are illustrated by FIGS. 3A, 3B and 4A. Human multiple myeloma cell lines L363, U266 and MM1.S were cultured in RPMI 1640 with Glutamax-I, supplemented with 10% FCS, 100 U/ml penicillin and 100 μg/ml streptomycin. Cells were seeded at 10000 cells/well in 96 well plates. Cells were incubated in the presence of test compounds or vehicle in a final volume of 0.2 ml for 24 or 48 hours at 37° C. The test compounds included in the test were the synephrine derivatives CpdA, Naphth, Benz and Isobut, and DEX as a comparative example. Subsequently, 20 μl of MTT solution (5 mg/ml in phosphate-buffered saline) was added to each well. After 4 hours incubation at 37° C., 80 μl of the extraction buffer (10% SDS, 0.01 M HCl) was added. After 48 hours incubation at room temperature, the optical densities at 590 nm were measured. Results are expressed as percentage of viable cells as compared to vehicle-treated controls.
In general terms: Tetrazolium assays rely on reduction of a dye to a coloured formazan, in cell work by metabolically active cells.

In data set [2] the test system is pE-selectin-Luc (E-selectin promoter). As to the kind of experiment: pE-selectin-Luc reporter gene assay in TNF-induced L929sA cells. Conditions: 10 microM; TNF-induced; FIG. 1. The data set is classed as cell-based, mouse. The source says:
L929sA mouse fibroblast cells were stably transfected with pE-selectine-Luc (also referred to as pELAM-luc) by the calcium phosphate precipitation procedure described by De Bosscher et al. in Proc. Natl. Acad. Sci. USA (1997) 94, 13504-13509. The co-transfected plasmid pPGKβGeobpA, conferring resistance to G418 and expressing constitutive β-galactosidase enzymatic activity, was used as an internal control. L929sA cells were transiently transfected by the DEAE-dextran transfection method described by De Bosscher et al. (cited supra).
Recombinant murine tumor necrosis factor (TNF) was produced according to a method standard in the art. Dexamethasone (hereinafter abbreviated as DEX) commercially available from Sigma, and 2-(4-acetoxyphenyl)-2-chloro-N-methyl-ethylammonium chloride (hereinafter abbreviated as compound A) was synthesized according to Louw et al. in Biochemical Pharmacology (1997) 53, 189-197). A stock solution was prepared in ethanol (for DEX) or DMSO (for both comparative compound A and for the compound of example 6 according to this invention, i.e. 1-[4-(benzoyloxy)phenyl]-2-[(tert-butoxy-carbonyl)-methylamino]ethyl-1H-imidazole-1-carboxylate), aliquoted and stored at −70° C.
Induction was performed in triplicate for each independent experiment, which was carried out at least twice. Induction with DEX, compound A, and for the compound of example 6 according to this invention at 1 μM, 10 μM or respectively any other indicated concentration were performed at −2 hours for a total of 8 hours, while TNF (2000 IU/ml) was added at time point zero and left on the cells for 6 hours. After induction, cells were lysed with a lysis buffer (commercially available from Tropix, Bedford, Massachussets) and samples were assayed according to the manufacturer's instructions (Promega Biotech).
In order to investigate whether the inhibitory effect of compound A or the compound of example 6 according to this invention is directed at the transcriptional level of NF-κB-driven genes, the NF-κB-dependent physiological promoter construct, pE-selectin-Luc stably integrated into L929sA cells, was tested. […] DEX-mediated and compound A-mediated inhibition of TNF-induced gene expression were used as controls (FIG. 1). In the appended figures, NI stands for non-induced (either in presence of solvent controls like ethanol or DMSO).
On the technique in general: Reporter assays use an easily measured gene product as a stand-in for the process of interest.

The test system of a further data set is Saos-2. As to the kind of experiment: Q-PCR gene expression in osteosarcoma cell-line Saos-2. Type of data set: cell-based, human. Conditions: 10 μM. The protocol: (§3) CpdA was synthesized as described previously. […] They were sacrificed and livers were isolated. […] Gene expression of HPRT was used for normalization. […] Gene expression of HPRT was used for normalization. […] Gene expression of HPRT was used for normalization. Statistical significance was determined by one way anova. […] Gene expression of HPRT was used for normalization. […] Gene expression of HPRT was used for normalization. Statistical significance was determined by one way anova. […] Statistical significance was determined with a Kruskal-Wallis test.

The test system of another data set is MG63b. As to the kind of experiment: Q-PCR gene expression in osteosarcoma cell-line MG63b. The data set is classed as cell-based, human. Conditions: 10 μM. The protocol: as §3
A short description of data set [3]: MTT test, cell viability of A549 cells. Type of data set: cell-based, human. Particulars: human, A549 lung epithelial (carcinoma) cells, read-out: Block of A549 cell viability. How it is done:
as §1, §2
In a further MTT test, the activity of the synephrine derivatives on the inhibition of cell viability of non-immune cells was measured. […] Tests were performed for 24 hours and for 48 hours. The results are illustrated by FIGS. 5A and 5B for L929 cells, and by FIGS. 6A and 6B for A549 cells. It was observed that CpdA at 10^−5 M blocked cell viability of L929sA and A549 for not more than 10%.

Like-named read-outs stand apart in the source and are kept apart here. Bounds are passed on as bounds.

The source of these data is patent publication US8039501B2, “Synephrine derivatives useful as anti-inflammatory agents” (Universiteit Gent, priority 2005, dated 2011).

`CNCC(Cl)c1ccc(OC(C)=O)cc1.Cl` (stereo not drawn) [CpdA, 2-(4-acetoxyphenyl)-2-chloro-N-methyl-ethylammonium chloride]: the “Cell killing of U266 cells” value is 60% in data set [1] (10^−4M, serum-containing medium, FIG. 2B); 10% in data set [1] (10^−5M, growth medium with 10% fetal calf serum, 48 hours, FIG. 2B); 60% in data set [1] (10^−5M, serum-free growth medium, 24 hours, FIG. 2A). For the same compound, the “Effect on cell viability of U266 cells” value in data set [1] (10^−6 to 10^−5 M, 10% FCS, FIG. 3A) was 15-20%. Also, the cytotoxicity at 100 µM was 40% in data set [1] (Homo sapiens, U-266, 10^−4 M, 10% FCS, FIG. 3A, read-out: Block of U266 cell viability / cell killing) and 80% in data set [1] (Homo sapiens, U-266, 10^−4M, serum-free medium, FIG. 2A, read-out: Cell killing / reduction of viability of U266 cells). In data set [1] (Homo sapiens, U-266, 10^−6M, serum-free growth medium, 24 hours, FIG. 2A, read-out: Inhibition of viability of U266 cells), the cytotoxicity at 1 µM amounted to 40%. Besides, in data set [2], the “Inhibition of the expression of E-selectin” value is recorded as “inhibit the expression of E-selectin”. Moreover, the RANKL/OPG ratio entry with Saos-2 (24 hours) was “does not alter the RANKL/OPG ratio”. In addition, in the data set on Saos-2 (24 hours, FIG. 15, RANKL solvent versus CpdA p>0.05), the “Expression of osteoclast differentiation markers M-CSF and RANKL” value is listed as “does not stimulate the expression”. The “Expression of OPG” value in the data set on Saos-2 (24 hours, FIG. 15, solvent versus CpdA p>0.05) is reported as “does not down-regulate the expression of OPG”; with MG63b (24 hours, FIG. 14B), “does not down-regulate the expression of OPG”. In addition, the “Expression of pro-inflammatory mediators (anti-inflammatory effect)” value in the data set on Saos-2 (TNF 2000 U/ml 6 hours, FIG. 16) is reported as “anti-inflammatory effect”; in the data set with MG63b (TNF 2000 U/ml 6 hours, FIG. 14A) it was “anti-inflammatory effect”. The “Expression of cathepsin K” value in the data set on MG63b (24 hours, FIG. 14B) is “does not stimulate the expression of cathepsin K”. In addition, the cytotoxicity at 24 h in data set [3] (10^−4 M, 24 hours, FIG. 6A) was found to be 20%. Further, the cytotoxicity at 48 h in data set [3] (10^−4 M, 48 hours, FIG. 6B) turned out to be 40%. Also, the cytotoxicity in data set [3] (10^−5 M, 24 hours and 48 hours, FIGS. 6A and 6B) is no more than 10%.
